Assay [1] deals with Aldo-keto reductase family 1 member B1 (Homo sapiens, UniProt P15121). In words: Inhibition of aldose reductase (unknown origin).
The target of assay [2] is Aldo-keto reductase family 1 member B1 (Bos taurus) (UniProt P16116). In words: Inhibition of Bos taurus (bovine) aldose reductase isolated from lens using DL-glyceraldehyde as substrate at 1.8 mM by UV-Vis spectrophotometric analysis.
Assay [3] deals with Aldo-keto reductase family 1 member B1 (Rattus norvegicus, UniProt P07943). In words: Inhibition of Rattus norvegicus (rat) aldose reductase isolated from lens using DL-glyceraldehyde as substrate after 30 min by fluorometric analysis.

What is called IC50 is the midpoint of a concentration-inhibition curve. The low end stands for greater potency, the high end for weaker potency. In turn, `O=c1cc(-c2ccc(O)c(O)c2)oc2cc(O)c([C@@H]3O[C@H](CO)[C@@H](O)[C@H](O)[C@H]3O)c(O)c12` [ISOORIENTIN] showed a half-inhibitory concentration (IC50) in assay [1] of 1910 nM. As a reminder, the inhibition is how much of the control response was suppressed. In turn, `O=c1cc(-c2ccccc2Cl)oc2ccccc12` returned an inhibition in assay [2] of 60%.

Consider `O=c1cc(-c2ccccc2)oc2c(I)cc(Cl)cc12`, for which the inhibition in assay [2] came to 70%.

In the case of `O=c1cc(-c2ccc(Cl)cc2Cl)oc2c(I)cc(Cl)cc12`, the inhibition in assay [2] came out at 80%.

For `Cc1c(Cl)cc2c(=O)cc(-c3ccccc3)oc2c1I`, the inhibition in assay [2] is 80%. As to `COc1cc(-c2cc(=O)c3c(O)cc(O)cc3o2)cc(OC)c1O` [TRICIN], half-maximal inhibition in assay [1] (IC50) was put at 2030 nM.

In assay [3], `O=c1cc(-c2ccc(O)cc2)oc2c([C@@H]3O[C@H](CO)[C@@H](O)[C@H](O)[C@H]3O)c(O)cc(O)c12` [VITEXIN] showed an IC50 of 2030 nM.

Compound `O=C(O)/C=C/c1ccc(O)cc1` [COUMARIC ACID] had an IC50 in assay [1] of 140 nM. For the compound `Cc1c(Cl)cc2c(=O)cc(-c3ccc(Cl)cc3Cl)oc2c1I`, the inhibition in assay [2] was found to be 80%.

The record behind these values is ChEMBL document CHEMBL3045846, “Experimental validation and docking studies of flavone derivatives on aldose reductase involved in diabetic retinopathy, neuropathy, and nephropathy” (Med Chem Res, 2011).
